The source of these data is patent US5019647A, “Gastrin releasing peptide antagonist” (Merck & Co., Inc., priority 1988, dated 1991).

Assay [1] concerns the target T1, GRP receptor (Mus musculus, UniProt P21729).
T1 construct: Swiss 3T3 fibroblasts were used in these tests as the source of GRP receptor; endogenous in cells; host or cells: Swiss 3T3 cells (intact confluent monolayers), obtained from Dr. K. Brown
As to the kind of experiment: Procedure A: Binding Inhibition Studies (competitive binding with [3H-Phe15] GRP15-27). As to conditions: Swiss 3T3 cells; [3H-Phe15] GRP15-27 at 3 nM; 60 minutes at 15° C.; read-out: blocks binding of the radioligand, IC50. The method, then:
(§1) The activity of the peptide derivatives of the present invention as GRP antagonists was determined in competitive binding assays with a radio-active GRP derivative. Swiss 3T3 fibroblasts were used in these tests as the source of GRP receptor. Because these cells respond to GRP binding with a rapid increase in DNA synthesis, compounds that bind to the GRP receptor can also be tested for their ability to stimulate DNA synthesis. New DNA synthesis is one of the early steps in cell division and is widely accepted as a measure of mitogenicity or cell growth. […] Compounds which block DNA synthesis are mitogenic antagonists.
Swiss 3T3 cells, obtained from Dr. K. Brown (Institute of Animal Physiology, Cambridge, U.K.), were grown to confluency in Costar 12 well plates containing DMEM (Gibco) supplemented with 10% fetal bovine serum, 2 mM glutamine and 1% penicillin-streptomycin. The cells were washed twice with binding buffer [1:1 DMEM: Waymouths MB752/1 medium, plus 1 mg/ml BSA (Fraction V, Calbiochem)]. The antagonist was dissolved in 10 mM HCl, and diluted to the appropriate concentration in binding buffer. The antagonist was then added to the cells, followed by [3H-Phe^15 ] GRP15-27 at a final concentration of 3 nM. […]

The target in assay [2] is T2, GRP receptor on SCLC (Homo sapiens, UniProt P30550).
T2 construct: approximately 1×10^8 H345 SCLC cells; endogenous in cells; host or cells: H345 SCLC cells
Put plainly: Procedure D: Stimulation of Ca2+ Release in SCLC (Fura-2 fluorescence, GRP 14-27 challenge). The format is cell-based. As to conditions: H345 SCLC cells; 100 nM GRP14-27; read-out: blocks the Ca2+ response elicited by GRP14-27, IC50.
Method: Following the procedure of Heikkila et al., J Biol. Chem. 262 16456 (1987), approximately 1×10^8 H345 SCLC cells, maintained in RPMI-1640 (Ro) medium supplemented with selenium, insulin, and transferrin, were harvested by settling and washed with Ro. They were then resuspended in 2 ml Ro, to which 1.2 nmol Fura-2/AM per 10^6 cells was added. After a 15 minute incubation at 37° C., the cells were diluted to 10 ml with Ro and incubated for 1 hour at 37° C., the cells were then centrifuged and resuspended in HEPES-saline (140 mM NaCl, 5mM KCl, 5mM glucose, 1 mM CaCl2, 1 mM MgCl2, 20 mM HEPES, pH 7.4) at a density of 2.5-5×10^6 cells/ml. The cells were kept on ice for up to 2 hours before being used. Ca^2+ measurements were performed at 37° C. in an Aminco SPF-500 fluorimeter. The excitation wavelength was 340 nm, the emission wavelength 510 nm. Two ml of cell suspension was periodically resuspended in a 3 ml plastic cuvette. They were equilibrated at 37° for at least 5 minutes data was collected. After a stable baseline was established, the compound of interest was added, and data was collected for approximately 5 minutes. […] The cells were then lysed with 4 μl 10% Triton X-100 to measure peak fluorescence. Baseline fluorescence was measured after the subsequent addition of 40 μl 2M tris (pH 9.5) and 64 μl 0.2M EGTA.

Assay [3] deals with Swiss 3T3 cells. As to the kind of experiment: Procedure C: Mitogenesis Inhibition (GRP-stimulated 3H-thymidine incorporation). It counts as cell-based. As to conditions: 3 nM human GRP, read-out: blocks mitogenic stimulation of human GRP, IC50. The method, then: as §1
Swiss 3T3 cells were grown in monolayer culture in 24 -well plates (Costar) in serum-free DMEM for 48 hours, at which time the GRP or a GRP homologue, the antagonist and 23 nM ^3 H-thymidine were added. After an additional 48 hours, the cell monolayer was washed twice with PBS, and the cells were then removed with 1 ml 10×trypsin containing 5 mM EDTA. The cells were harvested with a Skatron filter apparatus, and the filters counted in a scintillation counter.

Residues, ends and D or L forms follow the SMILES beside them. *: point of attachment. X1 = CCOC[C@H](CC(C)C)N*

T1 sequence (P21729 whole entry): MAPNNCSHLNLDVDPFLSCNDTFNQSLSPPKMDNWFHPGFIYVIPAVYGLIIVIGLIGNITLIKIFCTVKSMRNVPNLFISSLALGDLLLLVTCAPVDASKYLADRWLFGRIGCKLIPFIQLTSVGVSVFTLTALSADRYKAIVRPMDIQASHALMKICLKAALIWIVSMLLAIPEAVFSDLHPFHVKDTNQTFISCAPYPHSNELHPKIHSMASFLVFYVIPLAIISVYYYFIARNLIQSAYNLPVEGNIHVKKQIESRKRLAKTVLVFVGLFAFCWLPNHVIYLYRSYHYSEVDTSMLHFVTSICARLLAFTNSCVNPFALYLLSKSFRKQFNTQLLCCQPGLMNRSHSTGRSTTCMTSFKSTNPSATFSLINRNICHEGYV
T2 sequence (P30550 whole entry): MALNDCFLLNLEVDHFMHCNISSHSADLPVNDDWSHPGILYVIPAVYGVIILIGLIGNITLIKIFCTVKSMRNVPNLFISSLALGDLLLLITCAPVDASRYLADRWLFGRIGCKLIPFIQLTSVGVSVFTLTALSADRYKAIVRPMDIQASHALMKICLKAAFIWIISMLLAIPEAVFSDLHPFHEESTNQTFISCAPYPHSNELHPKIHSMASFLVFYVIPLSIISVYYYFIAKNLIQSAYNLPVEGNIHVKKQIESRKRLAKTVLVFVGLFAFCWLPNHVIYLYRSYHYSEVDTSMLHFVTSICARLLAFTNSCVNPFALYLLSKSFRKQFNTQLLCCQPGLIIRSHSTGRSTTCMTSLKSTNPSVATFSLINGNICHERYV

Regarding `CCOC[C@H](CC(C)C)NC(=O)[C@H](Cc1c[nH]cn1)NC(=O)CNC(=O)[C@@H](NC(=O)[C@H](C)NC(=O)[C@H](Cc1c[nH]c2ccccc12)NC(=O)[C@H](Cc1c[nH]cn1)NC(C)=O)C(C)C` [Example 1, Ac-His-Trp-Ala-Val-Gly-His-NHCHCH2 OCH5] (Ac-HWAVGH-X1), the IC50 in assay [1] was roughly 5 nM; in assay [2] it was roughly 300 nM; in assay [3] it was roughly 20 nM.

As usually defined, the IC50 is the concentration that gives 50% inhibition.
